Like-named read-outs stand apart in the source and are kept apart here.
Assays:
[1] = tested on: medial meniscal tear in the right knee joint; format: in vivo, rat; conditions: for swelling scores vs vehicle controls: days 24-29, 31, and 36-43
Description: Male Lewis rats underwent surgery to induce a medial meniscal tear in the right knee joint. Animals were dosed i.a. with FGF-18 (10 μg/joint) on days 21, 28, and 35 and dosed orally with diclofenac (either 1 mg/kg or 3 mg/kg) or vehicle on days 21-23, 28-30, and 35-37, then terminated on day 42 or day 63. Serum was collected and evaluated for alpha 2 macroglobulin (α2MG) levels on days −3, 21, 42, and 63. α2MG is an inflammation serum biomarker. The link between α2MG and inflammation has already been shown (Kuribayashi et al., 2013).

[2] = tested on: Primary articular porcine chondrocytes; assay: Porcine chondrocyte proliferation with or without IL1α challenge; format: cell-based, pig; conditions: for restoration of rhFGF-18 proliferative activity in IL1α-challenged chondrocytes: anakinra 100 ng/mL with rhFGF-18 100 ng/mL, IL1α 10 ng/mL, direct and delayed treatments
Description: Porcine chondrocytes were isolated from the cartilage of a femoral head of a pig hip (pigs were approximately one year old). After dissection of the joints, the cartilage was harvested and digested 45 minutes with collagenase 0.25% (1/10 dilution of collagenase NBG4 2.5% in HAM's F12) at room temperature. The loosened cells were discarded and the cartilage further digested overnight with collagenase 0.1% (1/25 dilution of collagenase NBG4 2.5% in HAM's F12) at 37° C. to extract the chondrocytes. For this study, the chondrocytes were cultured in monolayer.
Primary articular porcine chondrocytes were stimulated or not with 10 ng/mL IL1α and were either treated immediately or 6 hours later with anakinra 100 ng/mL and/or trFGF-18 100 ng/mL. Each condition was performed in 4 or 6-plicates. As a control, cells were also cultured with anakinra alone, trFGF-18 alone or in the absence of any treatment (medium).
Pre-culture: After cell isolation porcine chondrocytes were inoculated at 20,000 cells/cm^2 and cultivated for one week in complete HAM's F12. Cells were then harvested with accutase, counted and used as described below.
For cells treated directly with anakinra: Chondrocytes were inoculated in a 24-well plate at 15,000 cells/well in 0.5 mL of complete HAM's F12. Then 0.25 mL of trFGF-18 400 ng/mL and/or 0.25 mL of anakinra 400 ng/mL were added to the cells. In the challenged samples, 10 μL of IL1α at 1,000 ng/mL were also added to the cells. trFGF-18, anakinra and IL1α were all diluted in complete HAM's F12. The final volume in the culture well was adjusted at 1 mL with complete HAM's F12. Final concentrations were 10 ng/mL IL1α, 100 ng/mL trFGF-18 and 100 ng/mL anakinra and the total culture time was eight days. A complete medium change was performed after four days. N=4.
For cells treated with anakinra and trFGF-18 6 hours after the IL1α challenge: Chondrocytes were inoculated in a 24-well plate at 15,000 cells/well in 1 mL of complete HAM's F12 containing or not containing IL1α 10 ng/mL. After 6 hours the medium was removed and replaced with 0.25 mL trFGF-18 400 ng/mL and/or 0.25 mL of anakinra 400 ng/mL. In the challenged samples, 0.25 mL of IL1α at 40 ng/mL was also added to the cells. trFGF-18, anakinra and IL1α were all diluted in complete HAM's F12. The final volume in the culture well was adjusted at 1 mL with complete HAM's F12. Final concentrations were 10 ng/mL IL1α, 100 ng/mL trFGF-18 and 100 ng/mL anakinra and the total culture time was eight days. A complete medium change was performed after four days. N=6.
After eight days of culture, cells were harvested with accutase and resulting cell suspensions were analyzed for cell concentration and cell viability with a ViCell™ cell analyzer (from Beckman Coulter). Statistical analysis consisted in a 1-way ANOVA followed by a Dunnett post-hoc analysis.

[3] = tested on: OA symptoms; conditions: Chevalier et al., 2009, cited from earlier work
[4] = tested on: RA patients; conditions: cited from earlier work

## O=C(O)Cc1ccccc1Nc1c(Cl)cccc1Cl [diclofenac, 2-(2,6-dichloranilino) phenylacetic acid]
[1]; diclofenac 1 mg/kg orally with FGF-18, any other time point
  knee caliper measurements: not significantly affected
[1]; diclofenac 1 mg/kg orally with FGF-18, day 42
  knee caliper measurements: significantly reduced
[1]; diclofenac 1 mg/kg orally with FGF-18
  swelling scores vs vehicle controls: significantly reduced
[1]; diclofenac 3 mg/kg orally with FGF-18, any other time point
  knee caliper measurements: not significantly affected
[1]; diclofenac 3 mg/kg orally with FGF-18, day 42
  knee caliper measurements: significantly reduced
[1]; diclofenac 3 mg/kg orally with FGF-18
  swelling scores vs vehicle controls: significantly reduced
[1]; diclofenac 1 or 3 mg/kg with FGF-18
  knee swelling (clinical observations and caliper measurements): significantly reduced

## anakinra: recombinant, nonglycosylated form of human interleukin-1 receptor antagonist (IL-1Ra), SEQ ID NO: 3
[2]
  restoration of rhFGF-18 proliferative activity in IL1α-challenged chondrocytes: fully block
[2]; listed as Anakinra
  restoration of rhFGF-18 proliferative activity in IL1α-challenged chondrocytes: fully restore
[2]; anakinra alone, 100 ng/mL
  effect on chondrocyte proliferation: no effect
[3]
  improvements in OA symptoms compared with placebo: not significantly associated
[3]; anakinra 150 mg
  pain versus placebo in OA: a tendency toward pain reduction
[4]; Bresnihan, 2002, St. Clair
  joint damage in RA patients: reduction in frequency and severity of joint damage
[4]; Mertens et al., 2009
  pain in RA patients: pain reduction
